Measured values taken from ChEMBL document CHEMBL1201862, “PubChem BioAssay data set” (2004).
Several values for one entry are separate records, joined by “and”; a condition that tells them apart may be missing. Identical values can stand only once. Activity calls are given as the source filed them.

Columns and labels:
Procathepsin L = Procathepsin L (Homo sapiens, UniProt P07711); test: cathepsin L inhibitors, dose response, counter-screen for M1/M17 aminopeptidase inhibitor project, biochemical, QFRET, 1536-well (AID 2214)
Leucine aminopeptidase = molecular target: T1, Leucine aminopeptidase (Plasmodium falciparum 3D7, UniProt Q8IL11); test: P. falciparum M17LAP inhibitors, primary screen, biochemical, fluorogenic H-Leu-NHMec substrate, 1536-well (AID 1619); type: functional
T1 sequence (Q8IL11 whole entry): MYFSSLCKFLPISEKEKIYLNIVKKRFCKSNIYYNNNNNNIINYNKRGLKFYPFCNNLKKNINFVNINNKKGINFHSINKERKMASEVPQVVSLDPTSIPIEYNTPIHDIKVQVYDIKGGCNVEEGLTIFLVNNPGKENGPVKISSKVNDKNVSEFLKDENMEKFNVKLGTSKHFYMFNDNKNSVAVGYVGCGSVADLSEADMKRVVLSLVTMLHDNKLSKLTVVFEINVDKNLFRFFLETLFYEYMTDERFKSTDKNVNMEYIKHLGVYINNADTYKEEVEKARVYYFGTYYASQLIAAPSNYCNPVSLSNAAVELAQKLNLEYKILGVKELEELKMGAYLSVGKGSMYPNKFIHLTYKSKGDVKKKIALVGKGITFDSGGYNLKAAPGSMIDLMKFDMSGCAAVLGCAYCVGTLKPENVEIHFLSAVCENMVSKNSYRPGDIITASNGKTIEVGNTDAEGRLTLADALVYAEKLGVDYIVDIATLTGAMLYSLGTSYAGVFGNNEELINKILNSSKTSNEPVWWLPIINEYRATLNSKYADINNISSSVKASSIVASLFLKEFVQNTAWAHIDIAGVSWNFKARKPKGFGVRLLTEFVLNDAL

Aspartyl aminopeptidase = Aspartyl aminopeptidase (Plasmodium falciparum 3D7, UniProt Q8I2J3); test: Counterscreen for inhibitors of M1 and M17 aminopeptidases: QFRET-based biochemical high throughput dose response assay for inhibitors of the Plasmodium falciparum M18 Aspartyl Aminopeptidase (PFM18AAP). [Related PubChem assays: 1619 (Screening assay (M17LAP inhibitors).), 1445 (Screening assay (M1AAP inhibitors).)]
[1] = Shn3 3'UTR reporter inhibitors, dose response, cell-based, Clone20 osteoblasts, firefly luciferase, cherry-picked (AID 624132); type: functional;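 also: firefly luciferase luminescence from reporter carrying the Shn3 3'UTR in osteoblasts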
[2] = molecular target: Glyceraldehyde-3-phosphate dehydrogenase (Homo sapiens, UniProt P04406)
Bcl-2-related protein A1 [3] = molecular target: T2, Bcl-2-related protein A1 (Mus musculus, UniProt Q07440); test: Bfl-1 binding inhibitors, SAR follow-up, biochemical, fluorescence polarization (AID 1070)
T2 sequence (Q07440 whole entry): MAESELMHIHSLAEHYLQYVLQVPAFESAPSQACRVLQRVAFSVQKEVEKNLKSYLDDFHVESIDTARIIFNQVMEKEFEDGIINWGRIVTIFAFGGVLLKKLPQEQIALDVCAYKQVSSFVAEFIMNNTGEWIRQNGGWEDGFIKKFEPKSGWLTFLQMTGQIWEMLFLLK

[4] = control 3'UTR Renilla luciferase suppression, dose response, counter-screen for Shn3 inhibitor project, cell-based, Clone20-Shn3RL, cherry-picked (AID 624133); type: functional
Bcl-2-related protein A1 [5] = molecular target: T2, Bcl-2-related protein A1; test: Bfl-1 inhibitors blocking BH3 peptide binding, confirmation, biochemical, TR-FRET, mouse Bfl-1 (AID 621);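 also: TR-FRET binding of GST-Bfl-1 to FITC-labelled Bid peptide via terbium antibody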
CHO = test: cytotoxicity in TLR9-MyD88 CHO cells, dose response, cytotoxicity control for TLR9-MyD88 binding inhibitor project, cell-based, luminescence (AID 588339); type: functional, hamster; conditions: Cricetulus griseus;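 also: CHO cells stably coexpressing TLR9 and MyD88 fusions from primary screen; compound exposure lasted 48 hours before viability readout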
[6] = inhibitors of PGC1a acetylation in cells, dose response, cell-based, cherry-picked samples (AID 720514); type: functional;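 also: potency may reflect raised or lowered acetylation signal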
Protein RecA = molecular target: T3, Protein RecA (Mycobacterium tuberculosis, UniProt P9WHJ3); test: Fluorescence Cell-Free Homogeneous Dose Retest to Identify Inhibitors of RecA-Intein Splicing Activity. [Related pubchem assays (depositor defined):AID2097, AID2223, AID489010, AID492950]; type: functional
T3 sequence (P9WHJ3 whole entry): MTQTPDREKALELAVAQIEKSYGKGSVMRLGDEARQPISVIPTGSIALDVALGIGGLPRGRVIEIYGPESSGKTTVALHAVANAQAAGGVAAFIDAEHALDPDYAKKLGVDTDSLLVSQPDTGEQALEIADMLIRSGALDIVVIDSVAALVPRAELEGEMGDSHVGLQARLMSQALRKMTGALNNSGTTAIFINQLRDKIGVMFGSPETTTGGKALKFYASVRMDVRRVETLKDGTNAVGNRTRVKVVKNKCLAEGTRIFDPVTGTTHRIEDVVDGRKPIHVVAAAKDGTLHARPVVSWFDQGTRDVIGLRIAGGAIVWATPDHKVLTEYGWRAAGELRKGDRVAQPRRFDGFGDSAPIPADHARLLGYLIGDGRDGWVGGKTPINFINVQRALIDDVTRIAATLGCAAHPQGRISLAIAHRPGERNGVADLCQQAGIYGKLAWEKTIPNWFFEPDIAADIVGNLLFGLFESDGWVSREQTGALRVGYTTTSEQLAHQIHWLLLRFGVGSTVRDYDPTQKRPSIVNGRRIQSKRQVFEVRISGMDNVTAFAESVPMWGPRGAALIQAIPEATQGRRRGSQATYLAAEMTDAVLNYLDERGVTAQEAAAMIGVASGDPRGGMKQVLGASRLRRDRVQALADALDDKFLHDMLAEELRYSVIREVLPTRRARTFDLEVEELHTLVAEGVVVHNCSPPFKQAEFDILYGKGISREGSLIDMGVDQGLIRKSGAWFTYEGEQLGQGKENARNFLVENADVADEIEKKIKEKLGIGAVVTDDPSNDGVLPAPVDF

[7] = Luminescence Cell-Based Dose Retest to Confirm Inhibitors of Cancer Stem Cells. [Related pubchem assays (depositor defined):AID2717, AID2721]; type: functional; conditions: Homo sapiens
INS1 = test: beta cell apoptosis inhibitors, cytokine rescue, dose response, luminescence, retest (AID 449756); type: functional, cell-based; conditions: Rattus norvegicus;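 also: cell death triggered by IL-1 beta plus TNF-alpha plus IFN-gamma mixture; protective hits raise ATP signal compared with cytokine alone wells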
[8] = molecular target: T4, Replicative DNA helicase DnaB (Mycobacterium tuberculosis, UniProt P9WMR3); test: DnaB intein splicing inhibitors, dose response, biochemical, cell-free fluorescence (AID 449749); type: functional
T4 sequence (P9WMR3 whole entry): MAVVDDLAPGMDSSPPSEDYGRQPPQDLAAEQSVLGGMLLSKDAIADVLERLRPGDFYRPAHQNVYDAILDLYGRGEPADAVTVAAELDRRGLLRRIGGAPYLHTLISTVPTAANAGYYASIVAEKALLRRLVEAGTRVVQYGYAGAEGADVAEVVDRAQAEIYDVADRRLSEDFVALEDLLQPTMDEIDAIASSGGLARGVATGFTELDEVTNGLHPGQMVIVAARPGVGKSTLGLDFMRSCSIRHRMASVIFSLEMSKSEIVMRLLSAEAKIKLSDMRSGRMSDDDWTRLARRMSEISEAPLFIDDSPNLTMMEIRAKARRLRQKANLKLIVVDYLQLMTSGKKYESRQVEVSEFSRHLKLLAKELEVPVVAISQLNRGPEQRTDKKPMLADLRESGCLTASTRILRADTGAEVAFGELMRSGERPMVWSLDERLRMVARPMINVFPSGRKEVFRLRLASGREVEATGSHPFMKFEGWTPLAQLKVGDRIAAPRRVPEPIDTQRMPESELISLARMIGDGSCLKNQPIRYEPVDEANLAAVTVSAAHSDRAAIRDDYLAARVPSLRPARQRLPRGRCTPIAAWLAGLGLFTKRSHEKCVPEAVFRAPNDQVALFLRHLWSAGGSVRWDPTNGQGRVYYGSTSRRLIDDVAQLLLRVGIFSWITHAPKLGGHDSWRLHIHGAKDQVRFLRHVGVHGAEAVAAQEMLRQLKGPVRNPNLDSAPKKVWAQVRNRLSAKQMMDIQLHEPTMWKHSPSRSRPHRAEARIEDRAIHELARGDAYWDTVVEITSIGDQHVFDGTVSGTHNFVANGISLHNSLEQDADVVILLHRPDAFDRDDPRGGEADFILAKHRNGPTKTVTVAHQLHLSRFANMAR

[9] = HepG2 cell cytotoxicity, dose response, cytotoxicity control for Shn3 inhibitor project, CellTiter-Glo, cherry-picked (AID 624134); type: functional, cell-based
Bcl-2-related protein A1 [10] = molecular target: T2, Bcl-2-related protein A1; test: Bfl-1 inhibitors, primary screen, biochemical, fluorescence polarization, FITC-Bid, mouse (AID 432)
Beta Lactamase = Beta Lactamase (Pseudomonas aeruginosa, UniProt Q932Y6); test: beta-lactamase reporter inhibitor potency, dose response, artefact control for TLR9-MyD88 binding inhibitor project, BLA reporter cells, FRET fluorescence (AID 588341); type: cell-based;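 also: cell based assay in CHO-K1 cells stably expressing beta-lactamase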
[11] = Luminescence Cell-Based Dose Confirmation HTS to Identify Inhibitors of Polyadenylation.; type: functional
Danio rerio = test: In Vivo Angiogenesis Dose-Response Confirmation. [Related pubchem assays: 732 (Assay preceding this confirmatory assay.)]; type: functional, organism-based
[12] = microbe, parasite or virus in culture; type: functional; conditions: Mycobacterium tuberculosis
[13] = M. tuberculosis growth inhibition, HTS (AID 449762); type: functional

Chain of Glyceraldehyde-3-phosphate dehydrogenase (P04406 whole entry): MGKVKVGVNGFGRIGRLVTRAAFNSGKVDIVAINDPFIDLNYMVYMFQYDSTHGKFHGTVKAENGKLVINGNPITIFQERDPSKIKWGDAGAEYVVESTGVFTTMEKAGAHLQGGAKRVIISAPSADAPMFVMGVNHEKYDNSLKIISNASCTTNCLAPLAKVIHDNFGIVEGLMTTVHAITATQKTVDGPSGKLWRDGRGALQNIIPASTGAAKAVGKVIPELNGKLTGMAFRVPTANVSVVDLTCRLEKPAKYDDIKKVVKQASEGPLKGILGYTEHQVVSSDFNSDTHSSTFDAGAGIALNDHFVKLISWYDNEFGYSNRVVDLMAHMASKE
Chain of Beta Lactamase (Q932Y6 whole entry): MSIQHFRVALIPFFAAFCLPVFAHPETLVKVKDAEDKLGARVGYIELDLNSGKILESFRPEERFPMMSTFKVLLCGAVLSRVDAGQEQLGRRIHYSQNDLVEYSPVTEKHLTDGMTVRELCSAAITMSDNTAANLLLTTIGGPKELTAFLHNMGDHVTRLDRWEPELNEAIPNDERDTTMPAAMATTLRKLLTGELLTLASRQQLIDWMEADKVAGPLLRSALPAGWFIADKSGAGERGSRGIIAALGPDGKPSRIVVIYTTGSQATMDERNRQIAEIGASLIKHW
Chain of Procathepsin L (P07711 whole entry): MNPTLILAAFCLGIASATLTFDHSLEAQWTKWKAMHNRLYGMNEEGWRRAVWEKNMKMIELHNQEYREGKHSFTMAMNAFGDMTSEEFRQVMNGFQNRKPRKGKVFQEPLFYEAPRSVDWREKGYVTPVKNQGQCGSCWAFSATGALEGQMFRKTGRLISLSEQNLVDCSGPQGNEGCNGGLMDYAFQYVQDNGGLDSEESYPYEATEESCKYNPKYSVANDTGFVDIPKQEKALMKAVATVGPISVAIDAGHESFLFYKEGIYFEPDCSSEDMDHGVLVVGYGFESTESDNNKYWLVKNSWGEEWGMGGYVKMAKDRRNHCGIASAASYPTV
Chain of Aspartyl aminopeptidase (Q8I2J3 whole entry): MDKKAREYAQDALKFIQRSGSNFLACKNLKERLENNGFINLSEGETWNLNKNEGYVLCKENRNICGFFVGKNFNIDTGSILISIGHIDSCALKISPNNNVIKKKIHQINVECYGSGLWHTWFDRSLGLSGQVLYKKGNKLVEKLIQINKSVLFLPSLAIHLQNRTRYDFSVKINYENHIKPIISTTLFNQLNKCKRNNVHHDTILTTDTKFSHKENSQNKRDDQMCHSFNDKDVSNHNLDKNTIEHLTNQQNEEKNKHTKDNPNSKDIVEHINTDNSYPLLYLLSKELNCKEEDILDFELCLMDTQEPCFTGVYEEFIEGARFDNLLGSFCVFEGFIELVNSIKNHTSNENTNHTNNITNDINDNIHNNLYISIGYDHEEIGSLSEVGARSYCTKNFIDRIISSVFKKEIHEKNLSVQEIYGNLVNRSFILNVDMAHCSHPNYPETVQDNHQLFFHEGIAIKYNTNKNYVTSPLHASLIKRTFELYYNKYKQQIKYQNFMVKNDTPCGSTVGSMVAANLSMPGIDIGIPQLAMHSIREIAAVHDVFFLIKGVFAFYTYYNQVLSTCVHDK

CCOc1ccc(NC(=O)Nc2ccc3nccnc3c2)cc1
IC50 (Procathepsin L): > 59.6 µM (not active)
IC50 (Leucine aminopeptidase): 5.45 µM (active)
IC50 (Aspartyl aminopeptidase): > 73.5 µM (not active)

CCOC(=O)CS(=O)(=O)c1nc(-c2ccccc2)cc(C(F)(F)F)n1
AC50 [1]: 3.42 µM (active)
IC50 [2]: > 100 µM (not active)
IC50 (Bcl-2-related protein A1 [3]): 5.36 µM (active)
AC50 [4]: 6.93 µM (active)
IC50 (Bcl-2-related protein A1 [5]): 4.63 µM (active) and 1.18 µM (active)
IC50 (CHO): 4.43 µM (active)
AC50 [6]: 6.64 µM (active)
EC50 (Protein RecA): 4.15 µM (active)
AC50 [7]: 2.77 µM (active)
AC50 (INS1): 7.22 µM (active)
AC50 [8]: 2.9 µM (active)
AC50 [9]: 12.9 µM (active)
IC50 (Bcl-2-related protein A1 [10]): 3.72 µM (active)
IC50 (Beta Lactamase): 19.2 µM (inactive)

COc1ccc(-c2cccc(NC(=O)COc3ccc(Cl)cc3)c2)nn1
EC50 [11]: > 120 µM (not active)

Cc1cccc2c1NC(=O)/C2=C1\Nc2ccccc2C1=O
IC50 (Danio rerio): 1.23 µM (active)

CCOc1cc(/C=N\NC(=O)Cn2nc([N+](=O)[O-])cc2C)ccc1OCc1cccc2ccccc12
CC50 [12]: > 40 µM (active)
IC50 [13]: > 100 µM (active)
